From publication PMC5343580, “Antimicrobial peptide cWFW kills by combining lipid phase separation with autolysis” (Scientific Reports, 2017)
Values after ≈ are worked out from the molar mass of the structure shown. Peptide text beside a SMILES is read from it.

Tests used:
B. subtilis 168 [1] = type: cell-based, Bacillus subtilis; conditions: 168, 18 h
Procedure: (§1) Cells were inoculated from an overnight culture 1:100 and grown to mid-log phase (OD600 = 0.2–0.4). Unless stated otherwise, all experiments were carried out in LB medium at 37 °C. Cell numbers were determined using a Petroff-Hausser counting chamber: OD600 = 1 corresponds to 8.8 × 10^7 CFU/ml B. subtilis. Further information on strains, conditions of gene induction, and minimal inhibitory concentration are listed in Supplementary Table 4.
(§2) The minimal inhibitory concentration (MIC), which is defined as the lowest concentration able to inhibit growth of a microorganism in vitro[59], was analysed as described before. Briefly, bacteria were grown to mid-log phase and diluted in growth medium to give a final cell number of 5 × 10^5 cells/well in 96 well microtiter plates. A microdilution technique was applied where small volumes of peptide solutions were added in a serial dilution ranging from 100 to 0.05 μM. Cells were cultivated for 18 hours, 37 °C, 180 rpm, followed by photometrical detection of the optical density using a microplate reader (Tecan). Peptide concentrations were tested in triplicates in three independent experiments.

B. subtilis HB5343 = type: cell-based, Bacillus subtilis; conditions: psd::ery (PE-deficient), determined in LB
Procedure: as §1, §2

B. subtilis SDB206 = type: cell-based, Bacillus subtilis; conditions: ywiE::neo clsB::spc clsA::ery (CL-deficient), determined in LB
Procedure: as §1, §2

B. subtilis 168/DSM402 = type: cell-based, Bacillus subtilis
Procedure: (§3) B. subtilis 168/DSM402 was grown in chemically defined Belitzky minimal medium (BMM)[61]. Cultures were incubated at 37 °C under steady agitation. Minimal inhibitory concentrations (MIC) were determined as described previously. In growth experiments, exponentially growing cultures were exposed to a concentration range of peptide (Supplementary Figure 1)[62]. For physiological stress experiments, concentrations were chosen that led to 50% reduction of the growth rate. For proteomic profiling, as well as for all follow up experiments performed under the same growth conditions, 8 μM cWFW were used.

B. subtilis 168/DSM 402 [2] = assay: Cytosolic proteome response profile (radioactive pulse-labelling, 2D-PAGE); type: cell-based, Bacillus subtilis; conditions: 8 μM cWFW, BMM
Procedure: To identify which cellular processes are disturbed by cWFW, we performed proteomic profiling of the Gram-positive model organism B. subtilis (Fig. 1). This technique combines radioactive pulse-labeling of newly synthesised proteins with two-dimensional SDS PAGE, thus providing insight into the acute antibiotic stress response.
as §3
Radioactive labelling of newly synthesised proteins and subsequent separation of the cytosolic proteome by two-dimensional polyacrylamide gel electrophoresis (2D-PAGE) was performed as previously described. Analytical gel images were analysed as described by Raatschen & Bandow[63] using Decodon Delta 2D 4.1 image analysis software. […] Protein spots were identified by MALDI-ToF/ToF or nanoUPLC-ESI-MS/MS using a Synapt G2-S HDMS mass spectrometer equipped with a lock spray source for electrospray ionisation and a ToF detector (Waters) as previously reported (Supplementary Tables 2 and 3)[62].

B. subtilis 168 [3] = assay: Membrane potential measurement with DiSC3(5); type: cell-based, Bacillus subtilis
Procedure: Peptide-induced changes in membrane potential were measured using the voltage-sensitive fluorescent dye DiSC3(5). In aqueous solution DiSC3(5) emits strong fluorescence which is quenched upon accumulation in polarised cells. Upon depolarisation, DiSC3(5) is released from the cell resulting in an increased fluorescence due to de-quenching. B. subtilis 168 was grown at 37 °C to mid-log phase and diluted in LB medium to OD600 0.2. After centrifugation for 1 min at 16,500 rpm, the supernatant was removed and cells carefully resuspended in 1 ml fresh pre-warmed LB containing 0.1 mg/ml BSA. Subsequently, 140 μl aliquots of the cell suspension were transferred into a 96 well microtiter plate and allowed to settle. 10 μl of 15 μM DiSC3(5) in LB/15% DMSO were added to the wells to give a final DiSC3(5) concentration of 1 μM. Cellular accumulation (quenching) of DiSC3(5) was monitored until the signal had reached stable fluorescence levels. The peptides were added at desired concentrations at 5 μl/well, and the resulting changes in DiSC3(5) fluorescence were analysed for at least 20 min using a Fluostar Optima, BMG Labtech. Solutions, plates and instruments were warmed to 37 °C prior to use.

B. subtilis 168 [4] = assay: ATP measurement (luciferase-based luminescence); type: cell-based, Bacillus subtilis; conditions: 20 min incubation with 4, 8, and 12 μM; p ≥ 0.05; three independent replicates
Procedure: For the determination of cellular ATP levels samples were incubated with increasing concentration of cWFW for 20 min, followed by flash-freeze in liquid N2 in order to stop metabolism. Cell lysis and measurement of cell ATP levels were carried out using ATP bioluminescence Assay Kit HSII (Roche Applied Science) following manufacturer’s instructions using a BMG Fluostar Optima luminometer. The measured luminescence was calibrated with a serial dilution of ATP and triplicate samples were equalised against the optical density of the corresponding cell suspensions.

B. subtilis 168/DSM 402 [5] = assay: Ion analysis (ICP-OES); type: cell-based, Bacillus subtilis; conditions: 15 min incubation with 8 μM, BMM, three independent measurements
Procedure: Only metal-free plastic ware and ultrapure water (Bernd Kraft) were used. All centrifugation steps were reduced to 2 min to reduce sample handling time. Cultures were adjusted to OD500 = 0.4 prior to antibiotic exposure to ensure equal cell count in each sample. Samples were prepared as described by Wenzel et al.[13]. Briefly, B. subtilis 168/DSM402 was grown in BMM until early exponential growth phase. For determination of ion concentrations, subcultures were incubated with 8 μM cWFW for 15 min, followed by cell harvest by centrifugation, washed twice in TE buffer (100 mM Tris-HCl, 1 mM EDTA, pH 7.5) and once in the same buffer without EDTA. The obtained cell pellets were digested in 65% nitric acid (Bernd Kraft) at 80 °C for 16 h. Prior to element analysis, samples were diluted with ultrapure water to a final nitric acid concentration of 10%. Element concentrations were determined by inductively-coupled plasma atomic emission spectroscopy using an iCAP* 6300 Duo View ICP Spectrometer (Thermo Fisher Scientific) as described before. […] Element concentrations were converted into intracellular ion concentrations based on the B. subtilis cellular volume, which was taken as 3 × 10^–9 μl based on average rod size determined by cryo-electron microscopy images by Matias and Beveridge[64][65].

B. subtilis 168 [6] = assay: Membrane fluidity in cells (laurdan GP); type: cell-based, Bacillus subtilis
From the text: Membrane fluidity was investigated with the small hydrophobic fluorescent dye laurdan, which integrates into cellular membranes and detects changes related to the lipid packing of the surrounding bilayer. The resulting changes in the fluorescence emission spectrum can be detected either spectroscopically or with fluorescence microscopy. A mathematical quantification of the emission shift is achieved by calculation of the laurdan GP (generalised polarisation) with GP = (I435 − I490)⁄(I435 + I490).
B. subtilis 168 cells were grown to OD600 ~ 0.5 in LB/0.1% glucose and incubated with 10 μM laurdan for 5 min, shaking in the dark. […] The supernatant removed from the cells after the last washing step served as background for laurdan fluorescence not associated with cells. […] All samples were shaken briefly before fluorescence detection at 435 ± 5 nm and 490 ± 5 nm (upon excitation at 350 ± 10 nm) on a plate reader (Fluostar Optima, BMG Labtech). Laurdan fluorescence was monitored for at least 20 min. […] Laurdan fluorescence in liposomes was recorded using an LS 50B spectrofluorometer (Perkin-Elmer Corp., Germany). […] Laurdan fluorescence was detected separately at 435 and 500 nm, respectively. The average of three measurements for each preparation was calculated to determine corresponding laurdan GP values. […]

[7] = system: B. subtilis KS19 (ΔlytABCDEF); assay: Cell lysis (optical density) in autolysin-deficient strain; type: cell-based, Bacillus subtilis; conditions: different concentrations, three replicate cultures
human cells = conditions: cited from earlier work
From the text: Antimicrobial peptides (AMPs) have been in the focus of research attention as a promising alternative for conventional antibiotics. The subclass of arginine- and tryptophan-rich peptides, with cationic charge and hydrophobic residues, provides the ideal structural prerequisite for interaction with the negatively charged bacterial membranes. To elucidate optimal structure-activity properties we screened a library of small synthetic peptides derived from the active motif of human antimicrobial peptide lactoferricin[3]. This analysis identified the cyclic hexapeptide cWFW (cyclo-RRRWFW) as ...

SMILES: N=C(N)NCCC[C@@H]1NC(=O)[C@H](CCCNC(=N)N)NC(=O)[C@H](Cc2c[nH]c3ccccc23)NC(=O)[C@H](Cc2ccccc2)NC(=O)[C@H](Cc2c[nH]c3ccccc23)NC(=O)[C@H](CCCNC(=N)N)NC1=O [cWFW, cyclo(RRRWFW)] (cyclo(FWRRRW))
- MIC (B. subtilis 168 [1]): 6 µM (≈ 5.93 µg/mL)
- MIC (B. subtilis HB5343): 6 µM (≈ 5.93 µg/mL)
- MIC (B. subtilis SDB206): 6 µM (≈ 5.93 µg/mL)
- MIC (B. subtilis 168/DSM402): 8 µM (≈ 7.91 µg/mL)
- induction factor of protein AcsA (B. subtilis 168/DSM 402 [2]): 3.7
- induction factor of protein CitZ (B. subtilis 168/DSM 402 [2]): 3.5
- induction factor of protein ClpC (B. subtilis 168/DSM 402 [2]): 5.4
- induction factor of protein ClpP (B. subtilis 168/DSM 402 [2]): 4.8
- induction factor of protein DltA (B. subtilis 168/DSM 402 [2]): 4.2
- induction factor of protein Dps (B. subtilis 168/DSM 402 [2]): 5.2
- induction factor of protein FbaA (B. subtilis 168/DSM 402 [2]): 2.9
- induction factor of protein FosB (B. subtilis 168/DSM 402 [2]): 8.3
- induction factor of protein GroEL (B. subtilis 168/DSM 402 [2]): 3.9
- induction factor of protein GsiB (B. subtilis 168/DSM 402 [2]): 8.4
- induction factor of protein GtaB (B. subtilis 168/DSM 402 [2]): 3.2
- induction factor of protein IspH (B. subtilis 168/DSM 402 [2]): 19.0
- induction factor of protein LiaH (B. subtilis 168/DSM 402 [2]): 16.6
- induction factor of protein LuxS (B. subtilis 168/DSM 402 [2]): 3.4
- induction factor of protein MinD (B. subtilis 168/DSM 402 [2]): 3.1
- induction factor of protein NadE (B. subtilis 168/DSM 402 [2]): 11.0
- induction factor of protein NfrA (B. subtilis 168/DSM 402 [2]): 5.7
- induction factor of protein OhrB (B. subtilis 168/DSM 402 [2]): 4.4
- induction factor of protein PepF (B. subtilis 168/DSM 402 [2]): 3.6
- induction factor of protein PspA (B. subtilis 168/DSM 402 [2]): 9.5
- induction factor of protein PurH (B. subtilis 168/DSM 402 [2]): 3.4
- induction factor of protein RacX (B. subtilis 168/DSM 402 [2]): 12.0
- induction factor of protein SalA (B. subtilis 168/DSM 402 [2]): 3.5
- induction factor of protein SodA (B. subtilis 168/DSM 402 [2]): 3.0
- induction factor of protein SpoVG (B. subtilis 168/DSM 402 [2]): 2.4
- induction factor of protein TpiA (B. subtilis 168/DSM 402 [2]): 5.8
- induction factor of protein Tpx (B. subtilis 168/DSM 402 [2]): 4.1
- induction factor of protein YceC (B. subtilis 168/DSM 402 [2]): 9.9
- induction factor of protein YdaG (B. subtilis 168/DSM 402 [2]): 5.6
- induction factor of protein YdbD (B. subtilis 168/DSM 402 [2]): 19.4
- induction factor of protein YfhM (B. subtilis 168/DSM 402 [2]): 5.8
- induction factor of protein YjdA (B. subtilis 168/DSM 402 [2]): 3.4
- induction factor of protein YkaA (B. subtilis 168/DSM 402 [2]): 4.6
- induction factor of protein YoxD (B. subtilis 168/DSM 402 [2]): 7.1
- induction factor of protein YpuA (B. subtilis 168/DSM 402 [2]): 4.0
- induction factor of protein YqiW (B. subtilis 168/DSM 402 [2]): 2.4
- induction factor of protein YqkF (B. subtilis 168/DSM 402 [2]): 7.7
- induction factor of protein YthP (B. subtilis 168/DSM 402 [2]): 5.9
- induction factor of protein YvlB (B. subtilis 168/DSM 402 [2]): 9.0
- induction factor of protein YvyD (B. subtilis 168/DSM 402 [2]): 6.2
- induction factor of protein YwjI (B. subtilis 168/DSM 402 [2]): 6.4
- induction factor of protein YwrO (B. subtilis 168/DSM 402 [2]): 4.3
- membrane depolarisation (DiSC3(5) fluorescence) (B. subtilis 168 [3]; growth-inhibitory concentrations (8 μM) and above, LB, 37 °C, three independent replicates): very low compared to that of the positive control KLA-1
- time until membrane potential was restored almost to control levels (B. subtilis 168 [3]; growth-inhibitory concentrations (8–12 μM)): ≤ 10 min
- change of ATP levels (B. subtilis 168 [4]): No significant changes
- change in cellular K+ content (B. subtilis 168/DSM 402 [5]): accumulation of K^+
- leakage of cellular ions (B. subtilis 168/DSM 402 [5]): no leakage of cellular ions was observed
- time until reduction of membrane fluidity reaches a steady state (B. subtilis 168 [6]; 6 μM, time-resolved laurdan GP): ≤ 2 min
- change of laurdan generalised polarisation (GP) in cells (B. subtilis 168 [6]; 10 min incubation with increasing concentrations, high GP = low membrane fluidity, three replicates): clear concentration-dependent increase in laurdan generalised polarisation (GP)
- lysis triggered by cWFW in the absence of major autolysins LytCDEF [7]: fully abolished
- toxicity towards human cells (human cells): not toxic towards human cells
